Legend:
M1 muscarinic receptor = molecular target: T1, M1 muscarinic receptor (Homo sapiens, UniProt P11229); assay: Functional mobilization of intracellular calcium (FLIPR) in M1-CHO cells; type: cell-based; details: Table 4; for Emax: 100% efficacy is the maximum response obtained with the Carbachol control; for M1 Activity: modulating M1 receptor
T1 construct: expressed in transfected cells; host or cells: CHO (M1-CHO)
T1 sequence (P11229 1-460): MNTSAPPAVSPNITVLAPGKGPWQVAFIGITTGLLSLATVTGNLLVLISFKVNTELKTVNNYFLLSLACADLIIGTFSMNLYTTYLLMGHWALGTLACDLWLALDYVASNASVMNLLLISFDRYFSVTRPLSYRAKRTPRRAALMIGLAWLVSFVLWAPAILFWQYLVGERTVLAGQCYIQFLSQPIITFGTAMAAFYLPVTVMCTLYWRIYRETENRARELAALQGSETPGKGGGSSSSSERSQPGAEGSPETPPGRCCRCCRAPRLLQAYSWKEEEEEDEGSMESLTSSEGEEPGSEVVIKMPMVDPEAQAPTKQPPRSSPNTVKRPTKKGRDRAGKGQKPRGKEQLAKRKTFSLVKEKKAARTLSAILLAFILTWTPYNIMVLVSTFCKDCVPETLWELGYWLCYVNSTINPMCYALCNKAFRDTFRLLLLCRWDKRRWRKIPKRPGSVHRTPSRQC
How it was run: (§1)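 CHO cells stably expressing human M1 or M4 receptor were loaded with Fluo-3 AM (or Calcium 3 dye) in Hepes-buffered saline, pH 7.4, with 1 mM probenecid, 0.5% final DMSO. Agonist mode: compound added directly; antagonist mode: 15 min preincubation before carbachol at EC80. FLIPR fluorescence recorded 60 sec.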

M4 muscarinic receptor = molecular target: T2, M4 muscarinic receptor (Homo sapiens, UniProt P08173); assay: Functional mobilization of intracellular calcium (FLIPR) in M4-CHO cells; type: cell-based; details: Table 4; for Emax: 100% efficacy is the maximum response obtained with the Carbachol control; for M4 Activity: modulating M4 receptor
T2 construct: expressed in transfected cells; host or cells: CHO (M4-CHO)
T2 sequence (P08173 1-479): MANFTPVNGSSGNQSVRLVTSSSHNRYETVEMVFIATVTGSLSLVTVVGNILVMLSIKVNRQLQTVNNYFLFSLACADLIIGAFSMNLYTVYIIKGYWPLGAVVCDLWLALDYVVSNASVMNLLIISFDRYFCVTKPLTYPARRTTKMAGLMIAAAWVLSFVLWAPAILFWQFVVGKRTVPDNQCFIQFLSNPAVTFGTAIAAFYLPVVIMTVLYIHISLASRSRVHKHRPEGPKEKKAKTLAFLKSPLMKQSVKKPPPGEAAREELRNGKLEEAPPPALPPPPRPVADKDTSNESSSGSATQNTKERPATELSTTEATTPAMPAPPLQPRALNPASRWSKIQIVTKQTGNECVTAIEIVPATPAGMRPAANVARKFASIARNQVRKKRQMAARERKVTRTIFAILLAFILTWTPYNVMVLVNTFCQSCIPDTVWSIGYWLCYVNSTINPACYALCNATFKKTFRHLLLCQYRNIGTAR
How it was run: as §1

SMILES	Emax (M1 muscarinic receptor)	M1 Activity (M1 muscarinic receptor)	Emax (M4 muscarinic receptor)	M4 Activity (M4 muscarinic receptor)
CCC#CCOC(=O)N1CC[C@@H](CN2CCC3(CC2)CN(C(=O)N(C)C)c2ccc(F)cc23)C1 [compound 645]	25 to 100%	xxx (activity was measured to be less than 2.0 μM)	25 to 100%	xxx (activity was measured to be less than 2.0 μM)
CC(=O)N[C@H]1CCC2(CCN(C3CCC(C(C)(C)C)CC3)CC2)c2ccccc21 (stereo partly shown) [compound 646]	25 to 100%	xxx (activity was measured to be less than 2.0 μM)	< 25%	x (activity was measured to be greater than 5.0 μM)
O=C1CCCN1[C@H]1CCC2(CCN(CC3CCCCC3)CC2)c2ccccc21 [compound 647]	25 to 100%	xxx (activity was measured to be less than 2.0 μM)	25 to 100%	xxx (activity was measured to be less than 2.0 μM)
CCOC(=O)N1CCC(N2CCC3(CC2)CN(C(C)=O)c2ccc(-c4cccc(OC)c4)cc23)CC1 [compound 648]	25 to 100%	xx (activity was measured to be between 2.0 μM and 5.0 μM)	< 25%	x (activity was measured to be greater than 5.0 μM)
CN(C)C(=O)N1CC2(CCN(C3CCN(C(=O)c4cccs4)CC3)CC2)c2cc(F)ccc21 [compound 649]	25 to 100%	xxx (activity was measured to be less than 2.0 μM)	< 25%	xxx (activity was measured to be less than 2.0 μM)
O=C(N[C@H]1CC2(CCN([C@@H]3CC4CC[C@@H]3C4)CC2)c2ccccc21)C1CC1 [compound 650]	25 to 100%	xxx (activity was measured to be less than 2.0 μM)	25 to 100%	xxx (activity was measured to be less than 2.0 μM)
CN(C)C(=O)N1CC2(CCN(C[C@H]3CCN(C(=O)OCC4CC4)C3)CC2)c2cc(F)ccc21 [compound 651]	25 to 100%	xxx (activity was measured to be less than 2.0 μM)	25 to 100%	xxx (activity was measured to be less than 2.0 μM)
CC(=O)N[C@H]1CCC2(CCN(C[C@H]3C[C@H]4C=CC3C4)CC2)c2ccccc21 [compound 652]	25 to 100%	xxx (activity was measured to be less than 2.0 μM)	25 to 100%	xxx (activity was measured to be less than 2.0 μM)
CCOC(=O)N1CCC(N2CCC3(CC2)CN(C(C)=O)c2c(-c4ccc(C(F)(F)F)cc4)cccc23)CC1 [compound 653]	25 to 100%	x (activity was measured to be greater than 5.0 μM)	25 to 100%	x (activity was measured to be greater than 5.0 μM)
CC(=O)N[C@H]1CCC2(CCN(CC3CC4CCC3C4)CC2)c2ccccc21 (stereo partly shown) [compound 655]	25 to 100%	xxx (activity was measured to be less than 2.0 μM)	25 to 100%	xxx (activity was measured to be less than 2.0 μM)
CCC#CCOC(=O)N1CCC(N2CCC3(CC2)CN(C(C)=O)c2ccccc23)CC1 [compound 656]	25 to 100%	xxx (activity was measured to be less than 2.0 μM)	25 to 100%	xxx (activity was measured to be less than 2.0 μM)
c1ccc2c(c1)CCCC21CCN(C2C[C@@H]3CC[C@@H](C2)C3)CC1 (stereo partly shown) [compound 657]	25 to 100%	xx (activity was measured to be between 2.0 μM and 5.0 μM)	25 to 100%	xxx (activity was measured to be less than 2.0 μM)
COCCOC(=O)N1CCC(N2CCC3(CC2)CN(CCOC)c2ccc(F)cc23)CC1 [compound 658]	25 to 100%	xxx (activity was measured to be less than 2.0 μM)	25 to 100%	xxx (activity was measured to be less than 2.0 μM)
Cc1cnc(C)c(N2CCC(N3CCC4(CC3)CN(C(=O)N(C)C)c3ccc(F)cc34)CC2)n1 [compound 659]	25 to 100%	xxx (activity was measured to be less than 2.0 μM)	25 to 100%	xxx (activity was measured to be less than 2.0 μM)
CN(C)C(=O)N1CC2(CCN(C[C@H]3CCN(c4cnccn4)C3)CC2)c2cc(F)ccc21 [compound 660]	> 100%	xxx (activity was measured to be less than 2.0 μM)	> 100%	xxx (activity was measured to be less than 2.0 μM)
CCOC(=O)N1CCC(N2CCC3(CC2)CN(C(C)=O)c2c(-c4ccccc4F)cccc23)CC1 [compound 661]	25 to 100%	x (activity was measured to be greater than 5.0 μM)	< 25%	x (activity was measured to be greater than 5.0 μM)
C[C@H](O)CC(=O)N1CCC(N2CCC3(CC2)CN(C(=O)N(C)C)c2ccc(F)cc23)CC1 [compound 662]	25 to 100%	x (activity was measured to be greater than 5.0 μM)	25 to 100%	xx (activity was measured to be between 2.0 μM and 5.0 μM)
O=C(N[C@H]1CCC2(CCN(C3CCCCCC3)CC2)c2ccccc21)C1CC1 [compound 663]	25 to 100%	xxx (activity was measured to be less than 2.0 μM)	25 to 100%	xxx (activity was measured to be less than 2.0 μM)
CCOC(=O)N1C2CCC1CC(N1CCC3(CC[C@H](NC(=O)C4CC4)c4ccccc43)CC1)C2 (stereo partly shown) [compound 664]	25 to 100%	xxx (activity was measured to be less than 2.0 μM)	25 to 100%	xxx (activity was measured to be less than 2.0 μM)
CC(C)C(=O)N1CCC(N2CCC3(CC2)CN(C(=O)N(C)C)c2ccc(F)cc23)CC1 [compound 665]	25 to 100%	x (activity was measured to be greater than 5.0 μM)	< 25%	x (activity was measured to be greater than 5.0 μM)
CC(=O)N[C@@H]1CCC2(CCN(C3CCCCCC3)CC2)c2ccccc21 [compound 666]	< 25%	x (activity was measured to be greater than 5.0 μM)	25 to 100%	xxx (activity was measured to be less than 2.0 μM)
Cc1ccc2c(c1)C1(CCN(C3CC4CCC3C4)CC1)CN2C(=O)NC(C)C (stereo not shown) [compound 667]	< 25%	x (activity was measured to be greater than 5.0 μM)	25 to 100%	x (activity was measured to be greater than 5.0 μM)
CS(=O)(=O)N[C@H]1CCC2(CCN([C@H]3CC4CC[C@H](C4)C3)CC2)c2ccccc21 [compound 668]	25 to 100%	xxx (activity was measured to be less than 2.0 μM)	25 to 100%	xxx (activity was measured to be less than 2.0 μM)
CCOC(=O)N1C2CCC1CC(N1CCC3(CC[C@@H](NC(C)=O)c4ccccc43)CC1)C2 (stereo partly shown) [compound 669]	25 to 100%	xxx (activity was measured to be less than 2.0 μM)	25 to 100%	xxx (activity was measured to be less than 2.0 μM)
CCCN1CC2(CCN(C[C@@H]3C[C@H]4C=C[C@H]3C4)CC2)c2cc(F)ccc21 [compound 670]	25 to 100%	x (activity was measured to be greater than 5.0 μM)	25 to 100%	xx (activity was measured to be between 2.0 μM and 5.0 μM)
CC(=O)N[C@H]1CC2(CCN(CC(=O)N3CCCC3)CC2)c2ccccc21 [compound 671]	< 25%	x (activity was measured to be greater than 5.0 μM)	< 25%	x (activity was measured to be greater than 5.0 μM)
CC#CCOC(=O)N1CCC(N2CCC3(CC2)CN(C(C)=O)c2ccccc23)CC1 [compound 672]	25 to 100%	xxx (activity was measured to be less than 2.0 μM)	25 to 100%	xxx (activity was measured to be less than 2.0 μM)
CN(C)C(=O)NC1CCC2(CCN(CC3CCCCC3)CC2)c2ccccc21 (stereo not shown) [compound 673]	< 25%	x (activity was measured to be greater than 5.0 μM)	25 to 100%	xx (activity was measured to be between 2.0 μM and 5.0 μM)

Source: patent US7786141B2 (Vertex Pharmaceuticals Incorporated, priority 2004, dated 2010)
